Among the data in ChEMBL document CHEMBL5150002, “Molecular Glues for Targeted Protein Degradation: From Serendipity to Rational Discovery” (J Med Chem, 2021) are EC50 values, retold here.

One may read the EC50 as the concentration giving half of the maximal effect.

Molecules are shown by their SMILES.

Assay [1] addresses T1, DNA damage-binding protein 1/Cyclin-dependent kinase 12/Cyclin-K (Homo sapiens, UniProt O75909+Q16531+Q9NYV4). The assay can be described thus: Molecular glue activity at human CDK12/CCNK (11 to 267 residues)/human DDB1-CUL4-RBX1 expressed in baculovirus expression system in human 293 TA cells assessed as CCNK protein degradation.
Assay [2] has as its target T1, DNA damage-binding protein 1/Cyclin-dependent kinase 12/Cyclin-K. The assay can be described thus: Molecular glue activity at human CDK12 (715 to 1052 residues)/Cyclin K/human DDB1-[…]-RBX1 expressed in baculovirus expression system assessed as Cyclin K protein degradation.

T1 sequence (O75909 whole entry, the tested form may be a part): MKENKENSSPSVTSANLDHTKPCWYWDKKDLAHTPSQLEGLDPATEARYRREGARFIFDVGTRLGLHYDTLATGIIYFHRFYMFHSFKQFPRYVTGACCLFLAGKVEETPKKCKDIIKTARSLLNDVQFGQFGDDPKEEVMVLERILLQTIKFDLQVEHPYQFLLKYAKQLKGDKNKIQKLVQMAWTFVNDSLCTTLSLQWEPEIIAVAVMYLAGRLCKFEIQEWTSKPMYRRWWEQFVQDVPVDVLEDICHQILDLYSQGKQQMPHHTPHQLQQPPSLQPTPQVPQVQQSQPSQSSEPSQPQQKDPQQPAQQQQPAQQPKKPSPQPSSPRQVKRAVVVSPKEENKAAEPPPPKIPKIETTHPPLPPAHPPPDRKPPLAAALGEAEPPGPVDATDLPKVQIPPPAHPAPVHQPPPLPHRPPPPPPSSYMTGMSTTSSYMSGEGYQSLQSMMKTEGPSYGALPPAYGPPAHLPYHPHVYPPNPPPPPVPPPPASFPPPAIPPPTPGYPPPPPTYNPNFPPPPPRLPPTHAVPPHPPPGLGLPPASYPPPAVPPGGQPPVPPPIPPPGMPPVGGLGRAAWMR
T1 sequence (Q9NYV4 whole entry, the tested form may be a part): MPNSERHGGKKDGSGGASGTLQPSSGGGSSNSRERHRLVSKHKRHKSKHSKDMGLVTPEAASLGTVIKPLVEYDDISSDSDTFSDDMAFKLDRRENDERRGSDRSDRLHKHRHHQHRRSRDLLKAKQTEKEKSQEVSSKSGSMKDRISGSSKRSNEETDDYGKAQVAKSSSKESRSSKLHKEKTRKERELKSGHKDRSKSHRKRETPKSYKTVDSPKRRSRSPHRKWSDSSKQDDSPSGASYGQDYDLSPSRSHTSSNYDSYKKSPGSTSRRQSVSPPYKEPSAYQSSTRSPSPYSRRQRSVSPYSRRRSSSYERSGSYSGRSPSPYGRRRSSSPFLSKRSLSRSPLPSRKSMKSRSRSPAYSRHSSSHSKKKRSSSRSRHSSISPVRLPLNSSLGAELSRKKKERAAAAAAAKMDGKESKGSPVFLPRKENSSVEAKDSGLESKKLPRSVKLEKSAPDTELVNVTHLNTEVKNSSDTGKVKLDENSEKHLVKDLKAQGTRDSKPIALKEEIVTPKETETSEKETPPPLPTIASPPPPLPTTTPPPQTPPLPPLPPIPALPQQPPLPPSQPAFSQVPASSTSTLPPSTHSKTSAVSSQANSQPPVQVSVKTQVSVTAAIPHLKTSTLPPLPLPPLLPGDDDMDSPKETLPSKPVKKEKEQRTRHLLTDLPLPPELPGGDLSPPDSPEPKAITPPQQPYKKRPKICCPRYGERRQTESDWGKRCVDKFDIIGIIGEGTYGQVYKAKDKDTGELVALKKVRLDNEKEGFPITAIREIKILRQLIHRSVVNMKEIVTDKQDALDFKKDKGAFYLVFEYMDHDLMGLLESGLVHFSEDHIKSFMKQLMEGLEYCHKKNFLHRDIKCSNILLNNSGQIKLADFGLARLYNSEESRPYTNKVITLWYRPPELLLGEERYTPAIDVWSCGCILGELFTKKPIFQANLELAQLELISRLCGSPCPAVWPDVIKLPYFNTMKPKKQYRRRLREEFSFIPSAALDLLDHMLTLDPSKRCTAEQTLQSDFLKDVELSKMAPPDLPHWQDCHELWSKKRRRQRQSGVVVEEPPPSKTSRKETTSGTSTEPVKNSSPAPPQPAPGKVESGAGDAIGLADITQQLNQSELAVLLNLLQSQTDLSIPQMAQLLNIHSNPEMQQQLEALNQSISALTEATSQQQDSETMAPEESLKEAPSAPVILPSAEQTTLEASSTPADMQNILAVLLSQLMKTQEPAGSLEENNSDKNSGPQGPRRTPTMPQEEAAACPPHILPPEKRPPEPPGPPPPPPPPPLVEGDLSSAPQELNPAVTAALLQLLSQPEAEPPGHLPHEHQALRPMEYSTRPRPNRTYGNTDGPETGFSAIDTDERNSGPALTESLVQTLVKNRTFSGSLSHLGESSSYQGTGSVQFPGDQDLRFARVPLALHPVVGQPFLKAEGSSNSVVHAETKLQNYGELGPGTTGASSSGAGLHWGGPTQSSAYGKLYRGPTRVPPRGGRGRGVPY
T1 sequence (Q16531 whole entry, the tested form may be a part): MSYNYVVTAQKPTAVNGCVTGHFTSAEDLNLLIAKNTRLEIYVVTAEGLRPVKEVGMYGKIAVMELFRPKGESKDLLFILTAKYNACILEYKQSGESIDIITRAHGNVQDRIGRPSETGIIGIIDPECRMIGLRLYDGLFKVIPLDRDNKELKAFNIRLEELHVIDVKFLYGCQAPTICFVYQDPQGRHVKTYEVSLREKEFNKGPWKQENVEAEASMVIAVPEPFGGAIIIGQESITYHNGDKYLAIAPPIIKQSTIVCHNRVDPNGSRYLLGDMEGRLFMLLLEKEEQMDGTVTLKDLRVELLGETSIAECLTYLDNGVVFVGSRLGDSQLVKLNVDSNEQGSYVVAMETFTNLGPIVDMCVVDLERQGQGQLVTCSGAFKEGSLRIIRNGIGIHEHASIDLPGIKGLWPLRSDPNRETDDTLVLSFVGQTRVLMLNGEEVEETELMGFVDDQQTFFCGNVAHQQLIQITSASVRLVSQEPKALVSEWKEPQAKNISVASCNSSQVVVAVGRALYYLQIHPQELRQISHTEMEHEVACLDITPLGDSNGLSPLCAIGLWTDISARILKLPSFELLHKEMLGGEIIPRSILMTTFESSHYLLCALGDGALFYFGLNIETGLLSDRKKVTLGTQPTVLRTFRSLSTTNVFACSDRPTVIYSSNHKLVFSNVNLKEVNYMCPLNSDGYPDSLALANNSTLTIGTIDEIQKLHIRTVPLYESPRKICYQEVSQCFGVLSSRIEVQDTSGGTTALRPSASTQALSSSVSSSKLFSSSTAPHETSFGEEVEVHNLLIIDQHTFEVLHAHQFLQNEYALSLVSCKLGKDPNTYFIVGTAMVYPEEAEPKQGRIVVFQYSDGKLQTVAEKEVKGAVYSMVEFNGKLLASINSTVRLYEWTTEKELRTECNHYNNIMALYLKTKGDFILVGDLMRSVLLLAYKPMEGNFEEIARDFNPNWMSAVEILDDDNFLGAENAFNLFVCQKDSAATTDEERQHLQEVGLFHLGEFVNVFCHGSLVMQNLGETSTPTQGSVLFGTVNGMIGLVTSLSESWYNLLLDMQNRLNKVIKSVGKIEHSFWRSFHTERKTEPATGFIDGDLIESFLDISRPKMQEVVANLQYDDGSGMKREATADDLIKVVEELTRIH

With `Cc1cnc(NC(=O)Cc2csc(Nc3cccc(CO)n3)n2)s1`, the EC50 in assay [1] is 41 nM. As to `Cc1cccc(Nc2nc(CC(=O)Nc3ncc(C)s3)cs2)n1`, the EC50 in assay [2] worked out at 461 nM; in assay [1], 132 nM.
